Results from patent US20230332197A1, “NUCLEOSIDES AND NUCLEOTIDES WITH 3' VINYL BLOCKING GROUP” (Illumina Singapore Pte. Ltd., priority 2022, published 2023).

Columns and labels:
[1] = tested on: DNA polymerases Pol 812, Pol 963, Pol 1558, and Pol 1901; experiment: Template-dependent incorporation of nucleotide into primer strand by DNA polymerases, gel electrophoresis; type: biochemical, 9° N; details: polymerase 0.12 mg/mL, Mg2+ approximately 4 mM, 60° C. for 10 minutes, template with five A overhang
Description: (§1) In this incorporation experiment, several DNA polymerases were used to test the feasibility of incorporating a 3′vinyl dTTP into a primer strand through template-dependent synthesis. For each test, 3′vinyl dTTP or an unblocked dTTP was exposed to one polymerase in the presence of a template strand having five A nucleotides overhang at the 5′ end, and the complementary primer strand has a fluorescent tag (FAM) at the 5′ end for visualization purposes. The DNA polymerases tested were Pol 812, Pol 963, Pol 1558, and Pol 1901, each at 0.12 mg/mL. The amino acid sequences of these mutants of 9° N polymerases are disclosed, for example, in U.S. Patent Publication Nos. 2020/0131484 A1 and 2020/0181587 A1, both of which are incorporated by reference herein in their entireties. The nucleotides include a 3′vinyl dTTP
(§2) The negative control nucleotide included a vinyl blocking group attached to the nitrogen atom of the T base typically involved in base-pair binding. Thus, it was expected that the negative control nucleotide would not be able to bind with the available adenosine bases of the template strand. The unaltered dTTP, on the other hand, was expected to be incorporated into the primer strand and could therefore act as a control for 5 incorporations.
For each test reaction, Mg^2+ concentration was at approximately 4 mM, while the polymerase of choice was at a concentration of 0.12 mg/mL. […]

[2] = target: T1, commercially available TdT (Bos taurus, UniProt P06526); experiment: Template-independent enzymatic synthesis of oligonucleotides with TdT, gel electrophoresis; type: biochemical; details: for nucleic acid formed from primer by TdT (extent of nucleotide addition): 5 or 10 minutes at room temperature
T1 construct: purchased
T1 sequence (P06526 whole entry): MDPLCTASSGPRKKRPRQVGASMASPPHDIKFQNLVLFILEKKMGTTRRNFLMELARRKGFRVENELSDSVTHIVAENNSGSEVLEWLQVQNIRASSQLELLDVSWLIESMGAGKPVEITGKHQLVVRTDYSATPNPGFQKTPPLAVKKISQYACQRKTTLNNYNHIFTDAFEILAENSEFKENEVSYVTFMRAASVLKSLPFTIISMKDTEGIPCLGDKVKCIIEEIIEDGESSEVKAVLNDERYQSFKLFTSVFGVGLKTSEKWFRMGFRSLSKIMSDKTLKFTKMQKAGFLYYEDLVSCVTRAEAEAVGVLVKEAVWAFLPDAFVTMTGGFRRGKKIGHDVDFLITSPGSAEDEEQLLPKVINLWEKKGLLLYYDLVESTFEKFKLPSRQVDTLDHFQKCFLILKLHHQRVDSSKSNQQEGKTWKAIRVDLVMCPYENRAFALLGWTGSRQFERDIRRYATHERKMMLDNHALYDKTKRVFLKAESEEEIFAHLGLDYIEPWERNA
Description: A preliminary test of template-independent synthesis of oligonucleotides using a commercially available TdT was conducted. A primer strand with a FAM fluorescent tag at the 5′ end (SED ID No. 2) was introduced.
Three different nucleotides were included, depending on the test condition: a 3′ vinyl blocked dTTP (“3VT”), a 3′-vinyl blocked dTTP that is pre-heated at 60° C. for 5 minutes (“HVT”), and an unaltered dTTP with 3′ hydroxy (“dT”). HVT condition was used to test the thermal stability of the nucleotide. Each nucleotide was allowed to react with the template in the presence of the TdT for 5 or 10 minutes at room temperature.
A control was run simultaneously, which included a primer with one added nucleotide. […] Without being bound to a particular theory, it is believed that the 3′ blocking group on the 3VT nucleotide prevented synthesis beyond the addition of one nucleotide.

[3] = Preliminary deblocking test of 3′ vinyl group with tetrazine reagent, HPLC UV absorption at 280 nm; type: physicochemical; details: 50 μM substrate, 5 mM methyltetrazine propylamine HCl, 0 to 60 Secs
Description: 50 μM of 3′ vinyl thymidine monophosphate (TMP) was deblocked in the presence of 5 mM of methyltetrazine propylamine HCl.

Pol 1558 = experiment: Template-dependent incorporation of nucleotide into primer strand by DNA polymerase, gel electrophoresis; type: biochemical, 9° N; details: Pol 1558 0.12 mg/mL, Mg2+ approximately 4 mM, 60° C. for 10 minutes
Description: as §1, §2
(§3) For each test reaction, Mg^2+ concentration was at approximately 4 mM, while the polymerase of choice was at a concentration of 0.12 mg/mL. The reactions also had 20 μmol of nucleotide, nucleotide 1 or nucleotide 2 as diagrammed, and 4 μmol of the template strand (SEQ ID No. 1) and 4 μmol of the primer strand (SEQ ID No. 2). The reaction was carried at 60° C. for 10 minutes.
(§4) Lanes 4, 7, 10, and 13 show the nucleic acids formed when nucleotide 1 was available. Lanes 5, 8, 11, and 14 show the nucleic acids formed when nucleotide 2 was available. Lanes 6, 9, 12, and […] show the nucleic acids formed when unaltered dTTP was available.

Pol 1901 = experiment: as above; type: biochemical, 9° N; details: Pol 1901 0.12 mg/mL, Mg2+ approximately 4 mM, 60° C. for 10 minutes
Description: as §1, §2, §3, §4

Pol 812 = experiment: as above; type: biochemical, 9° N; details: Pol 812 0.12 mg/mL, Mg2+ approximately 4 mM, 60° C. for 10 minutes
Description: as §1, §2, §3, §4

| Structure (SMILES) | number of nucleotides incorporated into the primer strand [1] | nucleic acid formed from primer by TdT (extent of nucleotide addition) [2] | deblocking of 3′ vinyl group to 3′OH TMP over time [3] | capability of incorporating the nucleotide into the primer strand, compared among the four polymerases (Pol 1558) | capability of incorporating the nucleotide into the primer strand, compared among the four polymerases (Pol 1901) | capability of incorporating the nucleotide into the primer strand, compared among the four polymerases (Pol 812) | nucleic acid formed from primer by TdT after pre-heating of the nucleotide (thermal stability) ([2]; nucleotide pre-heated at 60° C. for 5 minutes, reaction 5 or 10 minutes at room temperature) |
| --- | --- | --- | --- | --- | --- | --- | --- |
| Cc1cn([C@H]2C[C@H](O)[C@@H](COP(=O)(O)OP(=O)(O)OP(=O)(O)O)O2)c(=O)[nH]c1=O [unaltered dTTP, Deoxythymidine triphosphate, reference compound] | ≤ 5 | much longer nucleic acids | – | – | – | – | – |
| C=C[C@]1(O)C[C@H](n2cc(C)c(=O)[nH]c2=O)O[C@@H]1COP(=O)(O)O [3′ vinyl thymidine monophosphate (TMP), 3′ vinyl thymidine monophosphate] | – | – | all of the 3′vinyl TMP have been consumed or deblocked | – | – | – | – |
| C=CO[C@H]1C[C@H](n2cc(C)c(=O)[nH]c2=O)O[C@@H]1COP(=O)(O)OP(=O)(O)OP(=O)(O)O [nucleotide 1] | – | addition of just one additional nucleotide | – | best performance | least capable of the four | best performance | addition of just one additional nucleotide |
